smiles,measurement,setting,value
c1ccc2ccccc2c1,solubility (mole fraction),"in DMF, 278.05 K",0.162
same,solubility (mole fraction),"in DMF, 283.05 K",0.185
same,solubility (mole fraction),"in DMF, 288.15 K",0.215
same,solubility (mole fraction),"in DMF, 292.75 K",0.244
same,solubility (mole fraction),"in DMF, 298.05 K",0.281
same,solubility (mole fraction),"in DMF, 303.25 K",0.307
same,solubility (mole fraction),"in DMF, 307.95 K",0.354
same,solubility (mole fraction),"in DMF, 313.15 K",0.406
same,solubility (mole fraction),"in DMF, 318.15 K",0.465
same,solubility (mole fraction),"in NMP, 278.18 K",0.269
same,solubility (mole fraction),"in NMP, 283.25 K",0.289
same,solubility (mole fraction),"in NMP, 288.17 K",0.307
same,solubility (mole fraction),"in NMP, 293.2 K",0.336
same,solubility (mole fraction),"in NMP, 298.16 K",0.379
same,solubility (mole fraction),"in NMP, 303.21 K",0.41
same,solubility (mole fraction),"in NMP, 308.17 K",0.438
same,solubility (mole fraction),"in NMP, 313.16 K",0.486
same,solubility (mole fraction),"in NMP, 318.21 K",0.535
same,solubility (mole fraction),"in NMP, 323.27 K",0.577
same,solubility (mole fraction),"in THF, 278.6 K",0.241
same,solubility (mole fraction),"in THF, 284.35 K",0.273
same,solubility (mole fraction),"in THF, 288.25 K",0.292
same,solubility (mole fraction),"in THF, 293.25 K",0.324
same,solubility (mole fraction),"in THF, 298 K",0.352
same,solubility (mole fraction),"in THF, 303.2 K",0.385
same,solubility (mole fraction),"in THF, 308.19 K",0.428
same,solubility (mole fraction),"in THF, 313.25 K",0.469
same,solubility (mole fraction),"in THF, 318.35 K",0.51
same,solubility (mole fraction),"in THF, 323.2 K",0.566
same,solubility (mole fraction),"in THF, 328.21 K",0.6
same,solubility (mole fraction),"in THF, 333.22 K",0.629
same,solubility (mole fraction),"in acetone, 278.15 K",0.124
same,solubility (mole fraction),"in acetone, 283.15 K",0.143
same,solubility (mole fraction),"in acetone, 288.05 K",0.171
same,solubility (mole fraction),"in acetone, 293.25 K",0.194
same,solubility (mole fraction),"in acetone, 298.35 K",0.226
same,solubility (mole fraction),"in acetone, 303 K",0.268
same,solubility (mole fraction),"in acetone, 308.1 K",0.307
same,solubility (mole fraction),"in acetone, 313.05 K",0.361
same,solubility (mole fraction),"in acetone, 318.15 K",0.417
same,solubility (mole fraction),"in acetone, 323.05 K",0.477
same,solubility (mole fraction),"in ethyl acetate, 278.2 K",0.174
same,solubility (mole fraction),"in ethyl acetate, 283.17 K",0.191
same,solubility (mole fraction),"in ethyl acetate, 288.21 K",0.217
same,solubility (mole fraction),"in ethyl acetate, 293.19 K",0.233
same,solubility (mole fraction),"in ethyl acetate, 298.25 K",0.276
same,solubility (mole fraction),"in ethyl acetate, 303.2 K",0.314
same,solubility (mole fraction),"in ethyl acetate, 308.21 K",0.357
same,solubility (mole fraction),"in ethyl acetate, 313.23 K",0.406
same,solubility (mole fraction),"in ethyl acetate, 318.17 K",0.465
same,solubility (mole fraction),"in ethyl acetate, 323.21 K",0.526
same,solubility (mole fraction),"in isobutyl acetate, 278.18 K",0.183
same,solubility (mole fraction),"in isobutyl acetate, 283.2 K",0.205
same,solubility (mole fraction),"in isobutyl acetate, 288.22 K",0.232
same,solubility (mole fraction),"in isobutyl acetate, 293.23 K",0.259
same,solubility (mole fraction),"in isobutyl acetate, 298.19 K",0.299
same,solubility (mole fraction),"in isobutyl acetate, 303.23 K",0.335
same,solubility (mole fraction),"in isobutyl acetate, 308.45 K",0.387
same,solubility (mole fraction),"in isobutyl acetate, 313.2 K",0.433
same,solubility (mole fraction),"in isobutyl acetate, 318.17 K",0.483
same,solubility (mole fraction),"in isobutyl acetate, 323.21 K",0.539
same,solubility (mole fraction),"in n-butyric acid, 278.17 K",0.0834
same,solubility (mole fraction),"in n-butyric acid, 283.27 K",0.0952
same,solubility (mole fraction),"in n-butyric acid, 288.45 K",0.113
same,solubility (mole fraction),"in n-butyric acid, 293.2 K",0.129
same,solubility (mole fraction),"in n-butyric acid, 298.26 K",0.154
same,solubility (mole fraction),"in n-butyric acid, 303.22 K",0.179
same,solubility (mole fraction),"in n-butyric acid, 308.2 K",0.215
same,solubility (mole fraction),"in n-butyric acid, 313.3 K",0.253
same,solubility (mole fraction),"in n-butyric acid, 318.19 K",0.292
same,solubility (mole fraction),"in n-butyric acid, 323.28 K",0.34

# From BigSolDB 2.1
